The target of test [1] is Tyrosine-protein kinase JAK2 (Homo sapiens, UniProt O60674). Also on record: species or system Sf21.
The target of test [2] is T1, Tyrosine-protein kinase JAK3 (Homo sapiens, UniProt P52333).
T1 sequence (P52333 whole entry): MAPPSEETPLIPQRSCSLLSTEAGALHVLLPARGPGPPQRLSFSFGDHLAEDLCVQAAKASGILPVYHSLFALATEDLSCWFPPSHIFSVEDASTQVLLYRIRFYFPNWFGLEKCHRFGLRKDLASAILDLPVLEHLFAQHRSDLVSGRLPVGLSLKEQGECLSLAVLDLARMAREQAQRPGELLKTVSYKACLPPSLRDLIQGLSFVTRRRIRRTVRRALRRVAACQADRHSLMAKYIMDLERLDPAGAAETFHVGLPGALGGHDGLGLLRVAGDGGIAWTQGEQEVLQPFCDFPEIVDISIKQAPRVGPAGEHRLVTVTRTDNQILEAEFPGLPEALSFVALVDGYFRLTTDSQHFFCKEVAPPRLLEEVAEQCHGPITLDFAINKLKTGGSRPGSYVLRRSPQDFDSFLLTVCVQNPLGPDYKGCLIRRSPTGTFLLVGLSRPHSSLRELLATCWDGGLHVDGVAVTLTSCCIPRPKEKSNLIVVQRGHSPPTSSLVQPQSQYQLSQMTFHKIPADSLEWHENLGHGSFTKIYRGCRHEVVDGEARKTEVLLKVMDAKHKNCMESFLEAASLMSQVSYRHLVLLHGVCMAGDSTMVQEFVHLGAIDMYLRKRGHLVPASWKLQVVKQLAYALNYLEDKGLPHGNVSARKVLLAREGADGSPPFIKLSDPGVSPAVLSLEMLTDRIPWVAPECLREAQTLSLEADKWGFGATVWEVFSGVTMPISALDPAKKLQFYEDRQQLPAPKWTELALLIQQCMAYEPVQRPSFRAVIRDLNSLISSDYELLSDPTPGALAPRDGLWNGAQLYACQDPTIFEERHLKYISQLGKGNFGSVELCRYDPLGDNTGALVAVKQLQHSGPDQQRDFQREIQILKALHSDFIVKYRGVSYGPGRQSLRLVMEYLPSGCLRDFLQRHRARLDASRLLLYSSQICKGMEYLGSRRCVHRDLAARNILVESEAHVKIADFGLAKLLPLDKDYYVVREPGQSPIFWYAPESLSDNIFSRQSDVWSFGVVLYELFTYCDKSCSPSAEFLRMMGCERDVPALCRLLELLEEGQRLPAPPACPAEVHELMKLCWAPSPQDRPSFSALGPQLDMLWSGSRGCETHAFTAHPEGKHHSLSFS

For test [3], the target named is Tyrosine-protein kinase JAK1 (Homo sapiens, UniProt P23458).
Chain of Tyrosine-protein kinase JAK1 (P23458 whole entry): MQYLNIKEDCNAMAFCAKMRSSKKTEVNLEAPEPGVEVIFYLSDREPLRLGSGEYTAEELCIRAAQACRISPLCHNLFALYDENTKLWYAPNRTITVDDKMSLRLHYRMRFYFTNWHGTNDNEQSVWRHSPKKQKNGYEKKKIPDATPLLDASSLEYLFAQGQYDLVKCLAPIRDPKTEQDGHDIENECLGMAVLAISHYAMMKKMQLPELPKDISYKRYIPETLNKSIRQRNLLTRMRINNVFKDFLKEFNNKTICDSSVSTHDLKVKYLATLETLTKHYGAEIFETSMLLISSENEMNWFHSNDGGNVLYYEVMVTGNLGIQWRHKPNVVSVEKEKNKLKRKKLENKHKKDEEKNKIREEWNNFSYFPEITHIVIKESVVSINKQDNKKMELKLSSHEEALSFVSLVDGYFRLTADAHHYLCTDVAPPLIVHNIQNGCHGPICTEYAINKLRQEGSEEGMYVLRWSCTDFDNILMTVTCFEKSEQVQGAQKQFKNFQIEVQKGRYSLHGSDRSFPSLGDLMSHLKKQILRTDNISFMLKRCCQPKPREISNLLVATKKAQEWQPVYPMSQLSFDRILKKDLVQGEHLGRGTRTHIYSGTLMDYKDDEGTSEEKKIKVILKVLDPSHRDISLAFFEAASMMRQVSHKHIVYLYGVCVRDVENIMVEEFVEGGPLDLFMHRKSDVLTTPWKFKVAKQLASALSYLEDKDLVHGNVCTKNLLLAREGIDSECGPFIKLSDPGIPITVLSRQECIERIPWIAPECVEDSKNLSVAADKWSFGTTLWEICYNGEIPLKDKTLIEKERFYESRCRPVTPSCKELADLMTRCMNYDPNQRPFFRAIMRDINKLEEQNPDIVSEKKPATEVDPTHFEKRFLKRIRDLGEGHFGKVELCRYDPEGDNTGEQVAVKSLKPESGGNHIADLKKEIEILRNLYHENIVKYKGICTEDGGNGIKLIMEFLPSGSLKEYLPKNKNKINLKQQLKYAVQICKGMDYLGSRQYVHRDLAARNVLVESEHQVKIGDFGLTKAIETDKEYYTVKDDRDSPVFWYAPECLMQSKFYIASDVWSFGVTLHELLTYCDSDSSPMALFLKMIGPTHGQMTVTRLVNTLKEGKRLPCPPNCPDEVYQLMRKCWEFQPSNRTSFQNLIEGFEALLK

Chain of Tyrosine-protein kinase JAK2 (O60674 whole entry): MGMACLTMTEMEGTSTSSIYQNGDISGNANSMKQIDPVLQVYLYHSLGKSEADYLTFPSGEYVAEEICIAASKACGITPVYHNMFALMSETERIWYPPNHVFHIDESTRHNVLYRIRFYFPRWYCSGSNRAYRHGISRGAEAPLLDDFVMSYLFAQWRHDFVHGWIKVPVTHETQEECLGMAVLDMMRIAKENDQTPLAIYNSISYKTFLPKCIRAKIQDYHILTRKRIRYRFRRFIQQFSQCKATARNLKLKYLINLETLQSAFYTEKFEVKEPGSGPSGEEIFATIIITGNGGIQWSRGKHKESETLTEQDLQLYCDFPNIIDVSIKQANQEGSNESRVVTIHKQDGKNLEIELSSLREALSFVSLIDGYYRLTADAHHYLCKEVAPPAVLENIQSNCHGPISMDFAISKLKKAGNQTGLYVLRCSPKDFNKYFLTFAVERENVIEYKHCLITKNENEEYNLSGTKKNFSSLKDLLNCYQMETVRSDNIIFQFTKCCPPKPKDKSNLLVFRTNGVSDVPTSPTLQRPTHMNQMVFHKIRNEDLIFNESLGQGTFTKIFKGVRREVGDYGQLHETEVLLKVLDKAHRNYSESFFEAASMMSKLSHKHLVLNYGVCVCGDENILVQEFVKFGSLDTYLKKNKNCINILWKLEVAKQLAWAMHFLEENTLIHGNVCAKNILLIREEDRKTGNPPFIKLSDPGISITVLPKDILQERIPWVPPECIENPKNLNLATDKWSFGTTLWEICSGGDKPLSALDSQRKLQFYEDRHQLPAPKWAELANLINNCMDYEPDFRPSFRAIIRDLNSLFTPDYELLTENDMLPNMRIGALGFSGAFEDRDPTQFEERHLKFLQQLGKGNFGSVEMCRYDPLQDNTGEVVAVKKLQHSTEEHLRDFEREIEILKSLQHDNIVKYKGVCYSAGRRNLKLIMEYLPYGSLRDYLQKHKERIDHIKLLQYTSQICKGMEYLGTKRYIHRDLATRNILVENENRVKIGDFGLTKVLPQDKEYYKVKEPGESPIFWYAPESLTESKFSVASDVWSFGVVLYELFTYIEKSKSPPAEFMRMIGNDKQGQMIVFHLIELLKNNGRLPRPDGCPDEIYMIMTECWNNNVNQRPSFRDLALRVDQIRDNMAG

As usually defined, the IC50 is the concentration that inhibits the measured activity by half. Lower therefore signals inhibition by little substance. Take `CNc1nc(Nc2cnn(C(CC(N)=O)C3CCCCC3)c2)ncc1C(F)(F)F` (stereo not drawn): the IC50 in test [1] worked out at 98 nM; in test [2] it was 39 nM; in test [3], 670 nM.

Source of the values: ChEMBL document CHEMBL3797141, “Design, synthesis and preliminary biological evaluation of 4-aminopyrazole derivatives as novel and potent JAKs inhibitors” (Bioorg Med Chem, 2016).
